Results published in BindingDB's records for doi:10.1016/j.bmc.2020.115928 (Tu Dresden, 2021).

Assay: Inhibition of rabbit skeletal muscle myosin-2 ATPase incubated for 20 mins followed by ATP addition and measured after 20 mins

Oc1c(Br)cc(Br)cc1-c1[nH]c(Br)c(Br)c1Br [pentabromopseudilin]
IC50: 5.1 µM
